This is an account of results in US11236086B2, “Substituted pyrrolopyridines as inhibitors of activin receptor-like kinase” (BLUEPRINT MEDICINES CORPORATION, priority 2017, dated 2022).

SMILES strings stand for the structures.

The target in the test is T1, ALK2R206H (mutant ALK2, N-terminally tagged with GST) (Homo sapiens, UniProt Q04771, R206H).
T1 construct: purchased Carna Bioscience or ThermoFisher 09-148 or PV6232
T1 sequence (Q04771 21-509 R206H): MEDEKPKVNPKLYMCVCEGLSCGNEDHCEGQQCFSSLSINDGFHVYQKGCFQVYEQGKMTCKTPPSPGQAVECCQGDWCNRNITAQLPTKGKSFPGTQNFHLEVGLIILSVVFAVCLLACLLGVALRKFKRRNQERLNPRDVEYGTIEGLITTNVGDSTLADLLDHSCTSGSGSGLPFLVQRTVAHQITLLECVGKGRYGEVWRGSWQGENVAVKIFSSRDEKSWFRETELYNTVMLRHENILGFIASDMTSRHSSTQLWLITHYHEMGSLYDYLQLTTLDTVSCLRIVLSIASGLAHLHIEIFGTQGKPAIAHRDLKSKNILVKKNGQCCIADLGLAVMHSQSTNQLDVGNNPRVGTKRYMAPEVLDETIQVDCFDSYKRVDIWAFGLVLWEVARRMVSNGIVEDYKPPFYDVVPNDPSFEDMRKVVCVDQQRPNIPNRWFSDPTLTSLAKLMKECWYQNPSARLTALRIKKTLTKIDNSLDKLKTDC
Nature of the test: ALK binding assay (LANTHASCREEN TR-FRET competitive binding, displacement of Kinase Tracer 178). As to conditions: read-out: Binding Assay (IC50 class). How it is done: Example 10 ALK Binding Assays
Binding assays were conducted using the LANTHASCREEN® technology (ThermoFisher Scientific). LANTHASCREEN® is a competitive binding, displacement assay where the assumed steady state occupancy of the binding site is measured using a time-resolved, fluorescence energy transfer (TR-FRET) readout between a fluorescent tracer and Europium (Eu)-tagged antibody specific for the kinase or expression tag (e.g., GST) of interest. Displacement of the tracer by a compound of the disclosure reduces, and is directly proportional to, the TR-FRET between the tracer and the antibody. Tracer was used at a concentration equal to or near to its Kd for the kinase. The Eu-tagged antibody was typically used in excess to ensure sampling of all competent protein capable of binding the tracer.
For these assays, a mutant ALK2 was used that was N-terminally tagged with GST (ALK2R206H Carna Bioscience (09-148) or ALK2R206H ThermoFisher (PV6232)); a Eu-tagged anti-GST antibody (ThermoFisher) and Kinase Tracer 178 (ThermoFisher).
In all cases, the kinase (2-5 nM) was mixed with Eu-tagged antibody (4-10 nM) mix and tracer (50 nM) were incubated with test compound titrations prepared in 100% DMSO (1% DMSO final) for 30 minutes at room temperature. All reagents and compounds were dissolved in Kinase Buffer A (ThermoFisher) to achieve the final concentration. The plates were read on a PerkinElmer EnVision® multilabel plate reader or a BioTek Synergy Neo plate reader, and the assay signal was represented as a ratio of the TR-FRET emission (λex 330 nm, λ^em […] and λ^em 665 nm). This readout was normalized to 0% and 100% inhibited control wells, plotted against inhibitor concentration, and fitted to a 4-parameter log dose response curve.
The results of this assay are shown in Table 3 in the column labelled “Binding Assay” wherein “A” represents an IC50 of less than or equal to 10 nM; “B” represents an IC50 of greater than 10 nM and less than or equal to 50 nM; and “C” represents an IC50 of greater than 50 nM. Blank values in the table indicate that the particular compound was not tested in this assay.
(In TR-FRET formats the signal depends on donor and acceptor labels being close together.)
On to `O=C(C1CC1)N1CCN(c2ccnc3[nH]c(-c4ccc(C5CCCCC5)cc4)cc23)CC1` [Compound 319], for which the IC50 was in the range of 10 to 50 nM.

With `Cn1cc(-c2cc3c(N4CCN(C(=O)[C@@H]5CCCO5)CC4)ccnc3[nH]2)cn1` [Compound 81], the IC50 fell in the range of 10 to 50 nM. For `Cn1cc(-c2cc3c(N4CCN(C(=O)OCC5CCCCO5)CC4)ccnc3[nH]2)cn1` (stereo not drawn) [Compound 306] the value was no more than 10 nM; for `O=C(C1CC1)N1CCN(c2ccnc3[nH]c(-c4ccc(OCc5ccccc5)cc4)cc23)CC1` [Compound 406], 10 to 50 nM. In the case of `N#Cc1cc(C2(O)CCOCC2)ccc1-c1cc2c(N3CCN(C(=O)OC4COC4)CC3)ccnc2[nH]1` [Compound 465], the IC50 was no more than 10 nM. For `Cn1cc(-c2cc3c(N4CCN(C(=O)OCC5CC5)CC4)ccnc3[nH]2)cn1` [Compound 80] the value was no more than 10 nM; for `COCC(C)OC(=O)N1CCN(c2ccnc3[nH]c(-c4cnn(C)c4)cc23)CC1` (stereo not drawn) [Compound 165], 10 to 50 nM. Turning to `CCC(=O)c1ccc(-c2cc3c(N4CCN(C(=O)C5CC5)CC4)ccnc3[nH]2)cc1` [Compound 184], the IC50 is no more than 10 nM.

Consider `Cn1cc(-c2cc3c(N4CCN(C(=O)OCCOC5CCCCC5)CC4)ccnc3[nH]2)cn1` [Compound 405], for which the IC50 is no more than 10 nM. Take `O=C(C1CC1)N1CCN(c2ccnc3[nH]c(-c4ccc(C5CC5)cc4)cc23)CC1` [Compound 119]: the IC50 is greater than 50 nM. Turning to `N#Cc1cccc(-c2cc3c(N4CCN(C(=O)C5CC5)CC4)ccnc3[nH]2)c1` [Compound 44], the IC50 lay within 10 to 50 nM. For `CCOCC(=O)N1CCN(c2ccnc3[nH]c(-c4cnn(C)c4)cc23)CC1` [Compound 43] the value was greater than 50 nM; for `O=C(OC1COC1)N1CCN(c2ccnc3[nH]c(-c4csc(C(=O)N5CCCC5)n4)cc23)CC1` [Compound 448], no more than 10 nM.

In the case of `O=C(OC1COC1)N1CCN(c2ccnc3[nH]c(-c4nc(C(F)(F)F)cs4)cc23)CC1` [Compound 410, oxetan-3-yl 4-(2-(4-(trifluoromethyl)thiazol-2-yl)-1H-pyrrolo[2,3-b]pyridin-4-yl)piperazine-1-carboxylate], the IC50 is 10 to 50 nM.

As for `Cc1ccc(-c2cc3c(N4CCN(C(=O)C5CC5)CC4)ccnc3[nH]2)cc1` [Compound 16], the IC50 was in the range of 10 to 50 nM. With `CCOCC(C)OC(=O)N1CCN(c2ccnc3[nH]c(-c4cnn(C)c4)cc23)CC1` (stereo not drawn) [Compound 246] the figure was no more than 10 nM; with `Cc1[nH]ncc1-c1cc2c(N3CCN(C(=O)OC4COC4)CC3)ccnc2[nH]1` [Compound 92], no more than 10 nM. For `O=C(C1CC1)N1CCN(c2ccnc3[nH]c(-c4ccccc4)cc23)CC1` [Compound 3] the value was 10 to 50 nM; for `CCc1ccc(-c2cc3c(N4CCN(C(=O)C5CC5)CC4)ccnc3[nH]2)c(Cl)c1` [Compound 226], 10 to 50 nM; for `O=C(C1CC1)N1CCN(c2ccnc3[nH]c(-c4cc(F)cc(F)c4)cc23)CC1` [Compound 88], no more than 10 nM.

With `Cn1cc(-c2cc3c(N4CCN(C(=O)OCC5CCCO5)CC4)ccnc3[nH]2)cn1` (stereo not drawn) [Compound 238], the IC50 is no more than 10 nM. Consider `CCN1CCN(c2ccc(-c3cc4c(N5CCN(C(=O)C6CC6)CC5)ccnc4[nH]3)c3ncccc23)CC1` [Compound 471], for which the IC50 was no more than 10 nM. Turning to `Cn1cc(-c2cc3c(N4CCN(C(=O)OC5COC5)CC4)ccnc3[nH]2)c(C#N)n1` [Compound 209], the half-inhibitory concentration (IC50) was no more than 10 nM. With `Cn1cc(-c2cc3c(N4CCN(C(=O)OCCOC(C)(C)C)CC4)ccnc3[nH]2)cn1` [Compound 314] the figure was no more than 10 nM; with `CCOC(=O)N1CCN(c2ccnc3[nH]c(-c4cnn(C)c4)c(S(C)(=O)=O)c23)CC1` [Compound 339], 10 to 50 nM. For the molecule `Cn1cc(-c2cc3c(N4CCN(C(=O)[C@H]5C[C@H](F)C5)CC4)ccnc3[nH]2)cn1` [Compound 94], the IC50 was no more than 10 nM. With `CCOC(=O)N1CCN(c2ccnc3[nH]c(-c4ncccn4)cc23)CC1` [Compound 9] the figure was no more than 10 nM; with `O=C(C1CC1)N1CCN(c2ccnc3[nH]c(-c4ccc(Cl)cc4)cc23)CC1` [Compound 84], 10 to 50 nM; with `Cn1cnc(-c2cc3c(N4CCN(C(=O)O[C@H]5CC(F)(F)C5(F)F)CC4)ccnc3[nH]2)c1` [Compound 402], no more than 10 nM. For `O=C(C1CC1)N1CCN(c2ccnc3[nH]c(-c4ccc(F)cc4F)cc23)CC1` [Compound 87] the value was 10 to 50 nM.

In the case of `Cc1n[nH]c(C)c1-c1cc2c(N3CCN(C(=O)OC4COC4)CC3)ccnc2[nH]1` [Compound 157], the IC50 is greater than 50 nM. For the molecule `Cn1cc(-c2cc3c(N4CCN(C(=O)[C@H]5CC[C@@H](O)CC5)CC4)ccnc3[nH]2)cn1` [Compound 223], the IC50 was in the range of 10 to 50 nM. With `CC(C)c1[nH]ncc1-c1cc2c(N3CCN(C(=O)OC4COC4)CC3)ccnc2[nH]1` [Compound 239] the figure was greater than 50 nM; with `O=C(C1CC1)N1CCN(c2ccnc3[nH]c(-c4cccnc4)cc23)CC1` [Compound 4], 10 to 50 nM; with `CCOCCOC(=O)N1CCN(c2ccnc3[nH]c(-c4cnn(C)c4)cc23)CC1` [Compound 164], no more than 10 nM. Turning to `COC1(c2ccc(-c3cc4c(N5CCN(C(=O)OC6COC6)CC5)ccnc4[nH]3)nc2)CCOCC1` [Compound 457], the half-maximal inhibitory concentration (IC50) was no more than 10 nM. On to `CC(C)(C)c1cnc(-c2cc3c(N4CCN(C(=O)OC5COC5)CC4)ccnc3[nH]2)s1` [Compound 373], for which the IC50 lay in the range of 10 to 50 nM. For the molecule `Cc1coc(-c2cc3c(N4CCN(C(=O)OC5COC5)CC4)ccnc3[nH]2)n1` [Compound 107], the concentration for half-maximal inhibition (IC50) is 10 to 50 nM. Turning to `Cn1cc(-c2cc3c(N4CCN(C(=O)[C@H]5CCOC5)CC4)ccnc3[nH]2)cn1` [Compound 78], the IC50 was no more than 10 nM. With `CCOC(=O)N1CCN(c2ccnc3[nH]c(-c4cc(C)ns4)cc23)CC1` [Compound 47] the figure was no more than 10 nM; with `COc1cnc(-c2cc3c(N4CCN(C(=O)OC5COC5)CC4)ccnc3[nH]2)c(C#N)c1` [Compound 346], no more than 10 nM; with `CCOC(=O)N1CCN(c2ccnc3[nH]c(-c4ccc(C)nc4)cc23)CC1` [Compound 27], no more than 10 nM. With `O=C(C1CC1)N1CCN(c2ccnc3[nH]c(-c4ccc(CO)cc4)cc23)CC1` [Compound 57] the figure was no more than 10 nM; with `O=C(OC1COC1)N1CCN(c2ccnc3[nH]c(-c4cnccn4)cc23)CC1` [Compound 74], 10 to 50 nM; with `CCOC(=O)N1CCN(c2ccnc3[nH]c(-c4nn(C)cc4C)cc23)CC1` [Compound 42], 10 to 50 nM.

With `CC(=O)Nc1ccc(-c2cc3c(N4CCN(C(=O)OC5COC5)CC4)ccnc3[nH]2)nc1` [Compound 353], the IC50 was in the range of 10 to 50 nM. With `CCN1CCN(c2ccc(-c3cc4c(N5CCN(C(=O)C6CC6)CC5)ccnc4[nH]3)c(OC)c2)CC1` [Compound 454] the figure was 10 to 50 nM. For `N#Cc1csc(-c2cc3c(N4CCN(C(=O)OC5COC5)CC4)ccnc3[nH]2)n1` [Compound 230] the value was no more than 10 nM. For `Cc1ccc(-c2cc3c(N4CCN(C(=O)C5CC5)CC4)ccnc3[nH]2)c(F)c1` [Compound 63] the value was 10 to 50 nM; for `Cc1nc(-c2[nH]c3nccc(N4CCN(C(=O)OC5COC5)CC4)c3c2Cl)sc1C` [Compound 391], no more than 10 nM. Consider `Cn1cc(-c2cc3c(N4CCN(C(=O)OCC5CCC5)CC4)ccnc3[nH]2)cn1` [Compound 143], for which the IC50 is no more than 10 nM.

What is called IC50 is the concentration at which inhibition is half-maximal.
